# Measured values as given in ChEMBL document CHEMBL3352489, “6-Hydroxyquinolinium salts differing in the length of alkyl side-chain: synthesis and antimicrobial activity” (Bioorg Med Chem Lett, 2014).
# Experiments:
# [1] = Retention time of the compound by gradient elution based HPLC method; type: physicochemical
# [2] = Retention time of the compound by isocratic elution based HPLC method; type: physicochemical
# Trichosporon asahii [3] = experiment: microbe, parasite or virus in culture; type: functional; settings: Trichosporon asahii, 1188, 48 h
# Description: Antifungal activity against Trichosporon asahii 1188 after 48 hrs by modified standard CSLI M27-A2 method
# Klebsiella pneumoniae [4] = experiment: microbe, parasite or virus in culture; type: functional; settings: J 14368/08, 24 h
# Description: Antibacterial activity against Klebsiella pneumoniae J 14368/08 after 24 hrs by microdilution broth method
# Candida albicans [5] = experiment: microbe, parasite or virus in culture; type: functional; settings: ATCC 44859, 48 h
# Description: Antifungal activity against Candida albicans ATCC 44859 after 48 hrs by modified standard CSLI M27-A2 method
# Candida albicans [6] = experiment: microbe, parasite or virus in culture; type: functional; settings: ATCC 44859, 24 h
# Description: Antifungal activity against Candida albicans ATCC 44859 after 24 hrs by modified standard CSLI M27-A2 method
# Pichia kudriavzevii [7] = experiment: Antifungal activity against Candida krusei E28 after 24 hrs by modified standard CSLI M27-A2 method; type: functional; settings: E28, 24 h
# Escherichia coli [8] = experiment: microbe, parasite or virus in culture; type: functional; settings: CCM 4517, 48 h
# Description: Antibacterial activity against Escherichia coli CCM 4517 after 48 hrs by microdilution broth method
# Lichtheimia corymbifera [9] = experiment: Fungicidal activity against Absidia corymbifera 272 after 48 hrs by modified standard CSLI M27-A2 method; type: functional; settings: Lichtheimia corymbifera, 272, 48 h
# [10] = tested on: Trichophyton mentagrophytes; experiment: microbe, parasite or virus in culture; type: functional; settings: Trichophyton mentagrophytes, 445, 72 h
# Description: Antifungal activity against Trichophyton mentagrophytes 445 after 72 hrs by modified standard CSLI M27-A2 method
# Nakaseomyces glabratus [11] = experiment: Antifungal activity against Candida glabrata 20/I after 24 hrs by modified standard CSLI M27-A2 method; type: functional
# Klebsiella pneumoniae [12] = experiment: microbe, parasite or virus in culture; type: functional; settings: J 14368/08, 48 h
# Description: Antibacterial activity against Klebsiella pneumoniae J 14368/08 after 48 hrs by microdilution broth method
# Trichosporon asahii [13] = experiment: Fungicidal activity against Trichosporon asahii 1188 after 48 hrs by modified standard CSLI M27-A2 method; type: functional; settings: Trichosporon asahii, 1188, 48 h
# Candida tropicalis [14] = experiment: microbe, parasite or virus in culture; type: functional; settings: Candida tropicalis, 156, 24 h
# Description: Antifungal activity against Candida tropicalis 156 after 24 hrs by modified standard CSLI M27-A2 method
# Klebsiella pneumoniae [15] = experiment: microbe, parasite or virus in culture; type: functional; settings: D 11750/08, 24 h
# Description: Antibacterial activity against Klebsiella pneumoniae D 11750/08 after 24 hrs by microdilution broth method
# Staphylococcus aureus [16] = experiment: microbe, parasite or virus in culture; type: functional; settings: H 5996/08, 48 h
# Description: Antibacterial activity against Staphylococcus aureus H 5996/08 after 48 hrs by microdilution broth method
# Escherichia coli [17] = experiment: microbe, parasite or virus in culture; type: functional; settings: CCM 4517, 24 h
# Description: Antibacterial activity against Escherichia coli CCM 4517 after 24 hrs by microdilution broth method
# Staphylococcus aureus [18] = experiment: Bactericidal activity against Staphylococcus aureus CCM 4516/08 after 48 hrs by microdilution broth method; type: functional; settings: CCM 4516/08, 48 h, read-out: MBC>99.9
# [19] = tested on: Staphylococcus epidermidis; experiment: Bactericidal activity against Staphylococcus epidermidis H 6966/08 after 48 hrs by microdilution broth method; type: functional; settings: H 6966/08, 48 h, read-out: MBC>99.9
# Enterococcus sp. [20] = experiment: microbe, parasite or virus in culture; type: functional; settings: J 14365/08, 24 h
# Description: Antibacterial activity against Enterococcus sp. J 14365/08 after 24 hrs by microdilution broth method
# [21] = Cytotoxicity against CHOK1 cells after 24 hrs by MTT assay; type: ADME, cell-based; settings: Cricetulus griseus, CHO-K1, 24 h
# Aspergillus fumigatus [22] = experiment: microbe, parasite or virus in culture; type: functional; settings: Aspergillus fumigatus, 231, 48 h
# Description: Antifungal activity against Aspergillus fumigatus 231 after 48 hrs by modified standard CSLI M27-A2 method
# Candida tropicalis [23] = experiment: Fungicidal activity against Candida tropicalis 156 after 48 hrs by modified standard CSLI M27-A2 method; type: functional; settings: Candida tropicalis, 156, 48 h
# Pseudomonas aeruginosa [24] = experiment: Bactericidal activity against Pseudomonas aeruginosa CCM 1961 after 120 hrs by microdilution broth method; type: functional; settings: CCM 1961, 120 h, read-out: MBC>99.9
# Staphylococcus aureus [25] = experiment: Bactericidal activity against Staphylococcus aureus H 5996/08 after 48 hrs by microdilution broth method; type: functional; settings: H 5996/08, 48 h, read-out: MBC>99.9
# [26] = tested on: Staphylococcus epidermidis; experiment: microbe, parasite or virus in culture; type: functional; settings: H 6966/08, 24 h
# Description: Antibacterial activity against Staphylococcus epidermidis H 6966/08 after 24 hrs by microdilution broth method
# Lichtheimia corymbifera [27] = experiment: microbe, parasite or virus in culture; type: functional; settings: Lichtheimia corymbifera, 272, 24 h
# Description: Antifungal activity against Absidia corymbifera 272 after 24 hrs by modified standard CSLI M27-A2 method
# Pseudomonas aeruginosa [28] = experiment: microbe, parasite or virus in culture; type: functional; settings: CCM 1961, 72 h
# Description: Antibacterial activity against Pseudomonas aeruginosa CCM 1961 after 72 hrs by microdilution broth method
# Enterococcus sp. [29] = experiment: Bactericidal activity against Enterococcus sp. J 14365/08 after 48 hrs by microdilution broth method; type: functional; settings: J 14365/08, 48 h, read-out: MBC>99.9
# [30] = tested on: Trichophyton mentagrophytes; experiment: microbe, parasite or virus in culture; type: functional; settings: Trichophyton mentagrophytes, 445, 120 h
# Description: Antifungal activity against Trichophyton mentagrophytes 445 after 120 hrs by modified standard CSLI M27-A2 method
# Aspergillus fumigatus [31] = experiment: Fungicidal activity against Aspergillus fumigatus 231 after 48 hrs by modified standard CSLI M27-A2 method; type: functional; settings: Aspergillus fumigatus, 231, 48 h
# Pichia kudriavzevii [32] = experiment: Antifungal activity against Candida krusei E28 after 48 hrs by modified standard CSLI M27-A2 method; type: functional; settings: E28, 48 h
# Trichosporon asahii [33] = experiment: microbe, parasite or virus in culture; type: functional; settings: Trichosporon asahii, 1188, 24 h
# Description: Antifungal activity against Trichosporon asahii 1188 after 24 hrs by modified standard CSLI M27-A2 method
# [34] = tested on: Staphylococcus epidermidis; experiment: microbe, parasite or virus in culture; type: functional; settings: H 6966/08, 48 h
# Description: Antibacterial activity against Staphylococcus epidermidis H 6966/08 after 48 hrs by microdilution broth method
# Pseudomonas aeruginosa [35] = experiment: microbe, parasite or virus in culture; type: functional; settings: CCM 1961, 120 h
# Description: Antibacterial activity against Pseudomonas aeruginosa CCM 1961 after 120 hrs by microdilution broth method
# Lichtheimia corymbifera [36] = experiment: microbe, parasite or virus in culture; type: functional; settings: Lichtheimia corymbifera, 272, 48 h
# Description: Antifungal activity against Absidia corymbifera 272 after 48 hrs by modified standard CSLI M27-A2 method
# [37] = tested on: Trichophyton mentagrophytes; experiment: Fungicidal activity against Trichophyton mentagrophytes 445 after 120 hrs by modified standard CSLI M27-A2 method; type: functional; settings: Trichophyton mentagrophytes, 445, 120 h
# Nakaseomyces glabratus [38] = experiment: Antifungal activity against Candida glabrata 20/I after 48 hrs by modified standard CSLI M27-A2 method; type: functional
# Staphylococcus aureus [39] = experiment: microbe, parasite or virus in culture; type: functional; settings: CCM 4516/08, 48 h
# Description: Antibacterial activity against Staphylococcus aureus CCM 4516/08 after 48 hrs by microdilution broth method
# Staphylococcus aureus [40] = experiment: microbe, parasite or virus in culture; type: functional; settings: CCM 4516/08, 24 h
# Description: Antibacterial activity against Staphylococcus aureus CCM 4516/08 after 24 hrs by microdilution broth method
# Klebsiella pneumoniae [41] = experiment: microbe, parasite or virus in culture; type: functional; settings: D 11750/08, 48 h
# Description: Antibacterial activity against Klebsiella pneumoniae D 11750/08 after 48 hrs by microdilution broth method
# Aspergillus fumigatus [42] = experiment: microbe, parasite or virus in culture; type: functional; settings: Aspergillus fumigatus, 231, 24 h
# Description: Antifungal activity against Aspergillus fumigatus 231 after 24 hrs by modified standard CSLI M27-A2 method
# Candida albicans [43] = experiment: Fungicidal activity against Candida albicans ATCC 44859 after 48 hrs by modified standard CSLI M27-A2 method; type: functional; settings: ATCC 44859, 48 h
# Candida tropicalis [44] = experiment: microbe, parasite or virus in culture; type: functional; settings: Candida tropicalis, 156, 48 h
# Description: Antifungal activity against Candida tropicalis 156 after 48 hrs by modified standard CSLI M27-A2 method
# Klebsiella pneumoniae [45] = experiment: Bactericidal activity against Klebsiella pneumoniae D 11750/08 after 24 hrs by microdilution broth method; type: functional; settings: D 11750/08, 24 h, read-out: MBC>99.9
# Escherichia coli [46] = experiment: Bactericidal activity against Escherichia coli CCM 4517 after 48 hrs by microdilution broth method; type: functional; settings: CCM 4517, 48 h, read-out: MBC>99.9
# Pichia kudriavzevii [47] = experiment: Fungicidal activity against Candida krusei E28 after 48 hrs by modified standard CSLI M27-A2 method; type: functional; settings: E28, 48 h
# Staphylococcus aureus [48] = experiment: microbe, parasite or virus in culture; type: functional; settings: H 5996/08, 24 h
# Description: Antibacterial activity against Staphylococcus aureus H 5996/08 after 24 hrs by microdilution broth method
# Enterococcus sp. [49] = experiment: microbe, parasite or virus in culture; type: functional; settings: J 14365/08, 48 h
# Description: Antibacterial activity against Enterococcus sp. J 14365/08 after 48 hrs by microdilution broth method
# Klebsiella pneumoniae [50] = experiment: Bactericidal activity against Klebsiella pneumoniae J 14368/08 after 48 hrs by microdilution broth method; type: functional; settings: J 14368/08, 48 h, read-out: MBC>99.9
# Nakaseomyces glabratus [51] = experiment: Fungicidal activity against Candida glabrata 20/I after 48 hrs by modified standard CSLI M27-A2 method; type: functional
smiles,measurement,setting,value
CCCCCCCCCCCCCCCCCC[n+]1cccc2cc(O)ccc21.[Br-],Retention_time,[1],11.47 min
same,Retention_time,[2],7.06 min
CCCCCCCCCCCCCC[n+]1cccc2cc(O)ccc21.[Br-],MIC,Trichosporon asahii [3],31.2 µM
same,MIC95,Klebsiella pneumoniae [4],31.2 µM
same,MIC,Candida albicans [5],15.6 µM
same,MIC,Candida albicans [6],7.81 µM
same,MIC,Pichia kudriavzevii [7],7.81 µM
same,MIC95,Escherichia coli [8],31.2 µM
same,MFC,Lichtheimia corymbifera [9],125 µM
same,MIC,[10],7.81 µM
same,MIC,Nakaseomyces glabratus [11],3.91 µM
same,MIC95,Klebsiella pneumoniae [12],31.2 µM
same,MFC,Trichosporon asahii [13],31.2 µM
same,MIC,Candida tropicalis [14],15.6 µM
same,MIC95,Klebsiella pneumoniae [15],62.5 µM
same,MIC95,Staphylococcus aureus [16],7.81 µM
same,MIC95,Escherichia coli [17],31.2 µM
same,MBC,Staphylococcus aureus [18],7.81 µM
same,MBC,[19],3.91 µM
same,MIC95,Enterococcus sp. [20],1.95 µM
same,IC50,[21],32 µM
same,MIC,Aspergillus fumigatus [22],31.2 µM
same,Retention_time,[1],10.05 min
same,MFC,Candida tropicalis [23],15.6 µM
same,MBC,Pseudomonas aeruginosa [24],250 µM
same,MBC,Staphylococcus aureus [25],15.6 µM
same,MIC95,[26],0.98 µM
same,MIC,Lichtheimia corymbifera [27],31.2 µM
same,MIC95,Pseudomonas aeruginosa [28],125 µM
same,MBC,Enterococcus sp. [29],15.6 µM
same,MIC,[30],7.81 µM
same,MFC,Aspergillus fumigatus [31],250 µM
same,MIC,Pichia kudriavzevii [32],7.81 µM
same,MIC,Trichosporon asahii [33],15.6 µM
same,MIC95,[34],0.98 µM
same,MIC95,Pseudomonas aeruginosa [35],250 µM
same,MIC,Lichtheimia corymbifera [36],31.2 µM
same,MFC,[37],15.6 µM
same,MIC,Nakaseomyces glabratus [38],3.91 µM
same,MIC95,Staphylococcus aureus [39],1.95 µM
same,MIC95,Staphylococcus aureus [40],1.95 µM
same,MIC95,Klebsiella pneumoniae [41],62.5 µM
same,MIC,Aspergillus fumigatus [42],15.6 µM
same,MFC,Candida albicans [43],15.6 µM
same,Retention_time,[2],1.65 min
same,MIC,Candida tropicalis [44],15.6 µM
same,MBC,Klebsiella pneumoniae [45],62.5 µM
same,MBC,Escherichia coli [46],62.5 µM
same,MFC,Pichia kudriavzevii [47],7.81 µM
same,MIC95,Staphylococcus aureus [48],7.81 µM
same,MIC95,Enterococcus sp. [49],1.95 µM
same,MBC,Klebsiella pneumoniae [50],62.5 µM
same,MFC,Nakaseomyces glabratus [51],15.6 µM
CCCCCCCCCCCCCC[N+](C)(C)Cc1ccccc1,MIC,Trichosporon asahii [3],31.2 µM
same,MIC95,Klebsiella pneumoniae [4],7.81 µM
same,MIC,Candida albicans [5],7.81 µM
same,MIC,Candida albicans [6],7.81 µM
same,MIC,Pichia kudriavzevii [7],3.91 µM
same,MIC95,Escherichia coli [8],7.81 µM
same,MFC,Lichtheimia corymbifera [9],125 µM
same,MIC,[10],15.6 µM
same,MIC,Nakaseomyces glabratus [11],7.81 µM
same,MIC95,Klebsiella pneumoniae [12],7.81 µM
same,MFC,Trichosporon asahii [13],125 µM
same,MIC,Candida tropicalis [14],3.91 µM
same,MIC95,Klebsiella pneumoniae [15],7.81 µM
same,MIC95,Staphylococcus aureus [16],1.95 µM
same,MIC95,Escherichia coli [17],7.81 µM
same,MBC,Staphylococcus aureus [18],3.91 µM
same,MBC,[19],0.98 µM
same,MIC95,Enterococcus sp. [20],1.95 µM
same,IC50,[21],24 µM
same,MIC,Aspergillus fumigatus [22],15.6 µM
same,MFC,Candida tropicalis [23],125 µM
same,MBC,Pseudomonas aeruginosa [24],62.5 µM
same,MBC,Staphylococcus aureus [25],3.91 µM
same,MIC95,[26],0.98 µM
same,MIC,Lichtheimia corymbifera [27],31.2 µM
same,MIC95,Pseudomonas aeruginosa [28],15.6 µM
same,MBC,Enterococcus sp. [29],7.81 µM
same,MIC,[30],15.6 µM
same,MFC,Aspergillus fumigatus [31],125 µM
same,MIC,Pichia kudriavzevii [32],3.91 µM
same,MIC,Trichosporon asahii [33],31.2 µM
same,MIC95,[34],0.98 µM
same,MIC95,Pseudomonas aeruginosa [35],31.2 µM
same,MIC,Lichtheimia corymbifera [36],31.2 µM
same,MFC,[37],15.6 µM
same,MIC,Nakaseomyces glabratus [38],7.81 µM
same,MIC95,Staphylococcus aureus [39],0.98 µM
same,MIC95,Staphylococcus aureus [40],0.98 µM
same,MIC95,Klebsiella pneumoniae [41],7.81 µM
same,MIC,Aspergillus fumigatus [42],7.81 µM
same,MFC,Candida albicans [43],125 µM
same,MIC,Candida tropicalis [44],3.91 µM
same,MBC,Klebsiella pneumoniae [45],7.81 µM
same,MBC,Escherichia coli [46],7.81 µM
same,MFC,Pichia kudriavzevii [47],125 µM
same,MIC95,Staphylococcus aureus [48],1.95 µM
same,MIC95,Enterococcus sp. [49],1.95 µM
same,MBC,Klebsiella pneumoniae [50],7.81 µM
same,MFC,Nakaseomyces glabratus [51],125 µM
